Where a chain is given by its changes, count along the chain named.

Holding throughout (assay): biochemical
The target of assay [1] is HLA-DP DPA1*03:01/DPB1*04:02 (Homo sapiens, UniProt P04440+P20036, A42M/A65V/A84D/A85E/L207M/L97S).
Assay [2] has as its target T1, HLA-DP DPA1*01:03/DPB1*02:01 (Homo sapiens, UniProt P04440+P20036, A65V/A84D/A85E/K98E).
T1 sequence (P20036 29-260): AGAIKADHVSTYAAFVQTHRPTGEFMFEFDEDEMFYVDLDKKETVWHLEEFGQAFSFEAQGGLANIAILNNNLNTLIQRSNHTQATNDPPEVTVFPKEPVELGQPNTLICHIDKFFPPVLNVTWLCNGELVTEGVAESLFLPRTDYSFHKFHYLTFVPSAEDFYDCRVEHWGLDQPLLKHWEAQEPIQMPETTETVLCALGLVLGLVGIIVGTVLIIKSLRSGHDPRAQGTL
T1 sequence (P04440 30-258 A65V/A84D/A85E/K98E): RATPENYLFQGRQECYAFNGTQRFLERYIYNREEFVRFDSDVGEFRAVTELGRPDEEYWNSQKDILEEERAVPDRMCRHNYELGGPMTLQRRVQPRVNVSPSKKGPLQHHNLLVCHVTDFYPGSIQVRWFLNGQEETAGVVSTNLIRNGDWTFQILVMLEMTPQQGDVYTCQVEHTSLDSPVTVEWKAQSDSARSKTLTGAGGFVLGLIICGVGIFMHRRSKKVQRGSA
The assay is classed as binding. The following applies: read-out: Binding capacity/IC50 (nM) DPA1*01:03 DPB1*02:01.

For another assay, the target named is HLA-DR DRB1*08:02 (Homo sapiens, UniProt P01903+P01911, A100R/A103L/A169T/F76Y/H45Y/I96F/K41T/L162R/M171V/P40S/Q125H/Q178H/Q39Y/Q99D/R218S/R42G/S66Y/V115G/W38E). In kind it is binding. The conditions noted are these: read-out: Binding capacity/IC50 (nM) DRB1*08:02.
For another assay, the target named is HLA-DR DRB1*16:02 (Homo sapiens, UniProt P01903+P01911, A100R/F76Y/I96L/Q99D/V115G). The assay is classed as binding. The conditions noted are these: read-out: Binding capacity/IC50 (nM) DRB1*16:02.
Assay [3] concerns the target T2, HLA-DP DPA1*02:01/DPB1*05:01 (Homo sapiens, UniProt P04440+P20036, A65V/A84E/F191V/F64L/G113D/G114E/K142R/L158P/M116V/M62Q/P115A/Q81R/R125K/T114A/T199I/T259P/V234M).
T2 sequence (P20036 29-260 A42M/M62Q/Q81R/T114A/K142R/L158P/F191V/T259P): T1 sequence (P20036 29-260) with A14M, M34Q, Q53R, T86A, K114R, L130P, F163V, T231P
T2 sequence (P04440 30-258 F64L/A65V/A84E/G113D/G114E/P115A/M116V/R125K/T199I/V234M): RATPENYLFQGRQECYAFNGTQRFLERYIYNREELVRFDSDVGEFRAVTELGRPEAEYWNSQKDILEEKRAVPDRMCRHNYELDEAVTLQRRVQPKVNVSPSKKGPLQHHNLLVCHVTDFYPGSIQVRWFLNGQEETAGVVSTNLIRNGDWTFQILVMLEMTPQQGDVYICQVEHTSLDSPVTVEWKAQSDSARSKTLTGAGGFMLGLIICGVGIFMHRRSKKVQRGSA
In kind it is binding. The conditions noted are these: read-out: Binding capacity/IC50 (nM) DPA1*02:01 DPB1*05:01.

In another assay the target is HLA-DR DRB4*01:01 (Homo sapiens, UniProt P01903+P13762, G164S). The assay is classed as binding. The following applies: read-out: Binding capacity/IC50 (nM) DRB4*01:01.
In a further assay the target is HLA-DR DRB1*15:01 (Homo sapiens, UniProt P01903+P01911). In kind it is binding.
In another assay the target is HLA-DR DRB5*01:01 (Homo sapiens, UniProt P01903+Q30154). The assay is classed as binding. The conditions noted are these: read-out: Binding capacity/IC50 (nM) DRB5*01:01.
Another assay concerns the target HLA-DR DRB1*01:01 (Homo sapiens, UniProt P01903+P01911, A100R/D57E/F55L/F60I/F76Y/I96L/L162R/M171V/P40L/Q125E/R42F/V115G/Y59C). In kind it is binding. The following applies: read-out: Binding capacity/IC50 (nM) DRB1*01:01.
The target in another assay is HLA-DR DRB1*04:01 (Homo sapiens, UniProt P01903+P01911, A100K/A169T/F76Y/I96L/K127E/L162R/M171V/N62H/P40V/Q125Y/R42H/S133A/S149N/S66Y/V115G/V209L/W38E). In kind it is binding. The following applies: read-out: Binding capacity/IC50 (nM) DRB1*04:01.
The target in another assay is HLA-DR DRB3*01:01 (Homo sapiens, UniProt P01903+P79483). In kind it is binding. The conditions noted are these: read-out: Binding capacity/IC50 (nM) DRB3*01:01.
In assay [4] the target is T3, HLA-DP DPA1*01:03/DPB1*20:01 (Homo sapiens, UniProt P04440+P20036, A65V/A84D/A85E/E86D/F38Y/G113D/G114E/G40L/I94L/L37V/M116V/P115A/R125K/T199I).
T3 sequence (P20036 29-260): T1 sequence (P20036 29-260)
T3 sequence (P04440 30-258 L37V/F38Y/G40L/A65V/A84D/A85E/E86D/I94L/G113D/G114E/P115A/M116V/R125K/T199I/V234M): T2 sequence (P04440 30-258 F64L/A65V/A84E/G113D/G114E/P115A/M116V/R125K/T199I/V234M) with L8V, F9Y, G11L, L35F, E55D, A56E, E57D, I65L
The assay is classed as binding. The conditions noted are these: read-out: Binding capacity/IC50 (nM) DPA1*01:03 DPB1*20:01.

The target of another assay is HLA-DR DRB1*04:05 (Homo sapiens, UniProt P01903+P01911, A100R/A169T/D86S/F76Y/I96L/K127E/L162R/M171V/N62H/P40V/Q125Y/R42H/S133A/S149N/S66Y/V115G/V209L/W38E). In kind it is binding. The following applies: read-out: Binding capacity/IC50 (nM) DRB1*04:05.

Take `CC[C@H](C)[C@H](NC(=O)[C@H](CCCCN)NC(=O)[C@H](CCC(N)=O)NC(=O)[C@@H](NC(=O)[C@H](C)NC(=O)[C@H](CCC(=O)O)NC(=O)[C@@H](N)[C@@H](C)O)C(C)C)C(=O)N[C@@H](C)C(=O)N[C@H](C(=O)N[C@@H](CCC(=O)O)C(=O)N[C@@H](CO)C(=O)N[C@H](C(=O)N[C@H](C(=O)N[C@H](C(=O)N[C@@H](Cc1c[nH]c2ccccc12)C(=O)NCC(=O)N[C@@H](CCCCN)C(=O)N[C@H](C(=O)N1CCC[C@H]1C(=O)N[C@@H](CCCCN)C(=O)N[C@@H](Cc1ccccc1)C(=O)N[C@@H](CCCNC(=N)N)C(=O)N[C@@H](CC(C)C)C(N)=O)[C@@H](C)O)[C@@H](C)CC)C(C)C)[C@@H](C)CC)[C@@H](C)O` [RT(369-391)]: the IC50 in [1] stood at 1740 nM; in assay [2], 2210 nM; on HLA-DR DRB1*08:02, 24 nM; at HLA-DR DRB1*16:02 it was 2130 nM; in [3], 154 nM; at HLA-DR DRB4*01:01 it was 20 nM. The IC50 against HLA-DR DRB1*15:01 was 447 nM; on HLA-DR DRB5*01:01, 68 nM; on HLA-DR DRB1*01:01, 65 nM; at HLA-DR DRB1*04:01, 146 nM; at HLA-DR DRB3*01:01 it was 6230 nM; in assay [4], 972 nM. In addition, at HLA-DR DRB1*04:05, the IC50 came out at 2630 nM.

These data come from paper PMC3445454, “Broad and Cross-Clade CD4^+ T-Cell Responses Elicited by a DNA Vaccine Encoding Highly Conserved and Promiscuous HIV-1 M-Group Consensus Peptides” (PLoS ONE, 2012).
